We go through 13 compounds from paper PMC8510368, “Secondary Metabolites with Anti-Inflammatory Activities from One Actinobacteria Amycolatopsis taiwanensis” (Molecules, 2021).

As usually defined, the IC50 is the point on the concentration scale where inhibition reaches its midpoint. In general, viability refers to a per cent measure of how many cells are alive, often set against a control. Broadly, the cell viability is a read-out of living cells in per cent, often relative to untreated cells.

Read-outs that look alike come from different tables or passages of the source.

What all share (assay type): cell-based, mouse
For one data set, the system named is iNOS mRNA expression. Kind of data set: RT-PCR analysis of LPS-induced iNOS mRNA expression. Conditions: LPS treatment.
In data set [1] the test system is LPS-activated NO production in RAW 264.7 macrophages. Kind of data set: Inhibition of LPS-induced NO production (nitrite, Griess reagent assay). To be noted: for IC50: Mus musculus, read-out: IC50 NO; for NO inhibition (in words): LPS-induced NO production in RAW 264.7. How it is done:
(§1) Mouse macrophage cell line (RAW 264.7) was obtained from Bioresource Collection and Research Center (BCRC 60001) and cultured at 37 °C in Dulbecco’s Modified Eagle’s Medium (DMEM) supplemented with 10% fetal bovine serum (Gibco), 4.5 g/L glucose, 4 mM glutamine, penicillin (100 units/mL), and streptomycin (100 μg/mL) in a humidified atmosphere in a 5% CO2 incubator. The cells were treated with 10, 25, 50 μM natural products in the presence of 1 μg/mL LPS (lipopolysaccharide, Sigma-Aldrich, St. Louis, MO, USA) for 20 h. The concentration of NO in culture supernatants was determined as nitrite, a major stable product of NO, by Griess reagent assay, and cell viabilities were determined using the MTT assay as described previously.

Data set [2] can be described thus: Cell viability, MTT assay. Conditions: mouse. Also on record: concentration or dose not given beside the values. The procedure: as §1
The next data set concerns RAW 264.7 cells. The data set is described as follows: Cell viability, MTT assay. Also on record: concentration or dose not given beside the values. How it is done:
as §1
A general note: Formazan colour is commonly taken as a measure of viable cells.

Setting [3] is: RAW264.7, RAW 264.7 macrophages, 1 μg/mL LPS, 20 h, mean ± SEM (n = 4) of 3 independent experiments.
[4] abbreviates: RAW 264.7 macrophage cells, RAW 264.7, MTT assay, read-out: cell viability.
[5] abbreviates: RAW 264.7 macrophage cells, RAW 264.7 macrophages, MTT assay, mean ± SEM, read-out: Cell Viability (% Control).

Regarding `CC(O)c1ccc2c(c1)CCC1[C@](C)(C(=O)O)CCC[C@]21C` (relative stereo) [Compound 5, (1R*,4aS*)-7-(1-hydroxyethyl)-1,4a-dimethyl-1,2,3,4,4a,9,10,10a-octahydrophenanthrene-1-carboxylic acid], the “effect on LPS-increased iNOS mRNA expression” value in the data set on iNOS mRNA expression is “inhibited this increase in a concentration-dependent manner”. Further, in data set [1] (setting [3]), the IC50 amounted to 12.3 ± 4.97 µM. Moreover, the viability at 20 h in data set [2] (setting [4]) was above 80%; in data set [2] (setting [5]), 82.2 ± 3.21%. In the data set with RAW 264.7 cells (RAW 264.7, MTT assay), the “cell viability” value is recorded as above 95%.
Turning to `C[C@@H]1[C@@H](O)CC2C(C)(C)C3CC21CC[C@@]3(C)O` (relative stereo) [Compound 10, (2S*,3S*,6R*)-3,6,8,8-tetramethyloctahydro-1H-3a,7-methanoazulene-2,6-diol], the IC50 in data set [1] (setting [3]) is above 100 µM. In data set [2] (setting [5]), the viability at 20 h is 89.5 ± 2.15%.
`CC(=O)OCC(C)(O)C1CCC(C)C12CC=C(C)CC2` (stereo not drawn) [Compound 2, 12-acetoxy-11-hydroxyacora-3-ene]: in data set [1], the “NO inhibition (in words)” value is on record as “less effective NO inhibition”. Besides, the IC50 in data set [1] (setting [3]) was 34.2 ± 1.97 µM. The viability at 20 h in data set [2] (setting [5]) worked out at 99.6 ± 5.53%.
`CC(C)c1cc2c(c(O)c1O)[C@@]1(C)CCC(=O)C(C)(C)C1[C@@H](O)[C@H]2O` (stereo partly drawn) [Compound 3, 6α,7α,11-trihydroxy-3-oxoferrugiol]: in the data set on iNOS mRNA expression, the “effect on LPS-increased iNOS mRNA expression” value was “inhibited this increase in a concentration-dependent manner”. Besides, the “NO inhibition (in words)” value in data set [1] is reported as “showed inhibitory activities”. In data set [1] (RAW264.7, 20 h), the IC50 turned out to be 17.5 ± 1.85 µM. The results for the viability at 20 h in data set [2] (Cell Viability (% Control)) and in data set [2] (cell viability) were 95.5 ± 3.39% and above 80%, respectively. Besides, in the data set on RAW 264.7 cells (mouse, 20 h), the “cell viability” value is above 95%.
Turning to `CC(C)C1=C(O)C(=O)C2=C(CCC3C(C)(C)[C@@H](O)CC[C@]23C)C1=O` (stereo partly drawn) [Compound 4, amycolataiwanensin D], the IC50 in data set [1] (setting [3]) worked out at 24.8 ± 1.63 µM. Moreover, the viability at 20 h in data set [2] (setting [5]) came out at 91.1 ± 4.22%.
As for `CC1(C)CCC2C(=CC1=O)CCC1C(C)(C(=O)O)CCCC21C` (stereo not drawn) [Compound 6, 12(13→15)abeo-13-oxo-8(14)-abietene-18-oic acid], the IC50 in data set [1] (setting [3]) turned out to be 24.8 ± 12.9 µM. The results for the viability at 20 h in data set [2] (setting [4]) and in data set [2] (setting [5]) were below 80% and 76.3 ± 5.48%, respectively.
For the compound `COc1cc(CCCOC(C)=O)cc(OC)c1O` [Compound 7, amycolataiwanensin G], the concentration for half-maximal inhibition (IC50) in data set [1] (setting [3]) worked out at 12.8 ± 4.82 µM. The figures for the viability at 20 h in data set [2] (setting [4]) and in data set [2] (setting [5]) were below 80% and 56.3 ± 3.91%, respectively.
Take `CC(C)=CCCC1(C)C=Cc2cc(-c3ccc(O)cc3)cc(O)c2O1` (stereo not drawn) [Compound 8, amycolataiwanensin H]: the “effect on LPS-increased iNOS mRNA expression” value with iNOS mRNA expression is on record as “inhibited this increase in a concentration-dependent manner”. Besides, the 50% inhibitory concentration (IC50) in data set [1] (setting [3]) was determined as 17.8 ± 1.13 µM. Besides, the viability at 20 h in data set [2] (setting [4]) is above 80%; in data set [2] (setting [5]) it was 95.9 ± 1.32%. Also, in the data set with RAW 264.7 cells (RAW 264.7, MTT assay), the “cell viability” value was above 95%.
The matching figures for `CC1(C)CCc2cc(-c3ccc(O)cc3)cc(O)c2O1` [Compound 9, 6-(4-hydroxyphenyl)-2,2-dimethylchroman-8-ol]: “inhibited this increase in a concentration-dependent manner”, 13.3 ± 0.51 µM, above 80%, 98 ± 1.53% and above 95%.
Take `CC(O)c1ccc2c(c1)CCC1[C@](C)(C(=O)O)CCC[C@]21C` (stereo partly drawn) [E]: in data set [1], the “NO inhibition (in words)” value is given as “showed inhibitory activities”.
For `CC(C)=CCCC1(C)C=Cc2cc(-c3ccc(O)cc3)cc(O)c2O1` (stereo not drawn) [H], in data set [1], the “NO inhibition (in words)” value is “showed inhibitory activities”.
The same measure, in the same setting: for `CC1(C)CCc2cc(-c3ccc(O)cc3)cc(O)c2O1` [I] the value was “showed inhibitory activities”.
As to `O=c1c(O)c(-c2ccc(O)c(O)c2)oc2cc(O)cc(O)c12` [Quercetin, quercetin, reference compound], the IC50 in data set [1] (setting [3]) stood at 35.9 ± 2.34 µM. In addition, in data set [2] (setting [5]), the viability at 20 h was 94.1 ± 1.32%.
